Source: the supplement of paper PMC11208160
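Note: IS621 bridge recombinase in Escherichia coli cells against a fixed T5 target plasmid.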

Assay: recombinant UMI read abundance after kanamycin selection (control-corrected) (log10(CPM+1)); higher = more efficient recombination; extreme values may be limits of the assay; sequences stand for … in AGTGCAGAGAAAATCGGCCAGTTTTCTCTGCCTGCAGTCCGCATGCCGTGGGACCCCTTGGGTTCTAACCTGTTGCCTAGATTTATGCAGCGGACTGCCTTTCTCCCAAAGTGATAAACCGG…AGGTTGGTTTCACT; site = the 11-nt donor
How it was run: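 The measure is log10(CPM+1) for recombinant UMIs. These were PCR-amplified across the donor–target junction and sequenced after Escherichia coli carrying a donor and donor-binding-loop pair library and a target plasmid with T7-inducible IS621 bridge recombinase was plated on IPTG (0.07 mM) plus kanamycin or unselected. CPM were averaged over two replicates and scaled by control-derived factors.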
In the case of “CGGACTTCATGGACCGGTTTTCCCGGTAATCCGTATTTGCC (site CGGACTTCTGG)”, the “recombinant UMI read abundance (log10)” value is reported as 1.27.
With “CGGATGACATGGACCGGTTTTCCCGGTAATCCGTATTTGCA (site CGGATGACTTG)” the “recombinant UMI read abundance (log10)” value was 2.89.
For “CGGATGGCATGGACCGGTTTTCCCGGTAATCCGTATTTGAA (site CGGATGGCTTT)”, the “recombinant UMI read abundance (log10)” value was 2.15.
With “CGGATTCCATGGACCGGTTTTCCCGGTAATCCGTATTTGCT (site CGGAATCCTAA)” the “recombinant UMI read abundance (log10)” value was 0.
In the case of “CGGATTCCATGGACCGGTTTTCCCGGTAATCCGTATTTGCT (site CGGATTCCTAG)”, the “recombinant UMI read abundance (log10)” value is reported as 0.
With “CGGCACTCATGGACCGGTTTTCCCGGTAATCCGTATTTGTA (site CGGCACTCTTA)” the “recombinant UMI read abundance (log10)” value was 3.03.
With “CGGCAGTCATGGACCGGTTTTCCCGGTAATCCGTATTTGCC (site CGGAAGTCTGG)” the “recombinant UMI read abundance (log10)” value was 0.
For “CGGCAGTCATGGACCGGTTTTCCCGGTAATCCGTATTTGCC (site CGGCAGTCTGG)”, the “recombinant UMI read abundance (log10)” value was 2.22.
In the case of “CGGCAGTCATGGACCGGTTTTCCCGGTAATCCGTATTTGCC (site CGGGAGTCTGG)”, the “recombinant UMI read abundance (log10)” value is reported as 0.
For “CGGCAGTCATGGACCGGTTTTCCCGGTAATCCGTATTTGCC (site CGGTAGTCTGG)”, the “recombinant UMI read abundance (log10)” value was 0.
With “CGGCCATCATGGACCGGTTTTCCCGGTAATCCGTATTTGCT (site CGGACATCTAG)” the “recombinant UMI read abundance (log10)” value was 0.
In the case of “CGGCCATCATGGACCGGTTTTCCCGGTAATCCGTATTTGCT (site CGGCCATCTAG)”, the “recombinant UMI read abundance (log10)” value is reported as 1.29.
In the case of “CGGCCATCATGGACCGGTTTTCCCGGTAATCCGTATTTGCT (site CGGGCATCTAG)”, the “recombinant UMI read abundance (log10)” value is reported as 0.0046.
With “CGGCCATCATGGACCGGTTTTCCCGGTAATCCGTATTTGCT (site CGGTCATCTAG)” the “recombinant UMI read abundance (log10)” value was 0.
In the case of “CGGCCCACATGGACCGGTTTTCCCGGTAATCCGTATTTGTG (site CGGCCCACTCA)”, the “recombinant UMI read abundance (log10)” value is reported as 0.024.
With “CGGCCGACATGGACCGGTTTTCCCGGTAATCCGTATTTGTA (site CGGCCGACTTA)” the “recombinant UMI read abundance (log10)” value was 1.2.
In the case of “CGGCCTCCATGGACCGGTTTTCCCGGTAATCCGTATTTGTT (site CGGAATCCTAA)”, the “recombinant UMI read abundance (log10)” value is reported as 0.0121.
With “CGGCCTCCATGGACCGGTTTTCCCGGTAATCCGTATTTGTT (site CGGCCTCCTAA)” the “recombinant UMI read abundance (log10)” value was 0.0159.
With “CGGCGCCCATGGACCGGTTTTCCCGGTAATCCGTATTTGAG (site CGGCGCCCTCT)” the “recombinant UMI read abundance (log10)” value was 0.00618.
In the case of “CGGCGCCCATGGACCGGTTTTCCCGGTAATCCGTATTTGTC (site CGGCGCCCTGA)”, the “recombinant UMI read abundance (log10)” value is reported as 1.85.
With “CGGCTTTCATGGACCGGTTTTCCCGGTAATCCGTATTTGGC (site CGGCTTTCTGC)” the “recombinant UMI read abundance (log10)” value was 0.438.
In the case of “CGGGAAACATGGACCGGTTTTCCCGGTAATCCGTATTTGAT (site CGGGAAACTAT)”, the “recombinant UMI read abundance (log10)” value is reported as 2.27.
In the case of “CGGGAAACATGGACCGGTTTTCCCGGTAATCCGTATTTGAT (site CGGGAACCTAT)”, the “recombinant UMI read abundance (log10)” value is reported as 0.00381.
With “CGGGAAACATGGACCGGTTTTCCCGGTAATCCGTATTTGAT (site CGGGAAGCTAT)” the “recombinant UMI read abundance (log10)” value was 2.21.
For “CGGGAAACATGGACCGGTTTTCCCGGTAATCCGTATTTGAT (site CGGGAATCTAT)”, the “recombinant UMI read abundance (log10)” value was 1.74.
In the case of “CGGGAACCATGGACCGGTTTTCCCGGTAATCCGTATTTGAT (site AGGGAACCTAT)”, the “recombinant UMI read abundance (log10)” value is reported as 0.
With “CGGGAACCATGGACCGGTTTTCCCGGTAATCCGTATTTGAT (site CAGGAACCTAT)” the “recombinant UMI read abundance (log10)” value was 0.
With “CGGGAACCATGGACCGGTTTTCCCGGTAATCCGTATTTGAT (site CCGGAACCTAT)” the “recombinant UMI read abundance (log10)” value was 0.
In the case of “CGGGAACCATGGACCGGTTTTCCCGGTAATCCGTATTTGAT (site CGAGAACCTAT)”, the “recombinant UMI read abundance (log10)” value is reported as 0.
